Measured values reported in the METLIN SMRT retention time set (Domingo-Almenara et al. 2019).

Assay: gradient 5% acetonitrile 3 min, to 50% in 2 min, to 85% in 15 min, held 3 min, 100 µL/min
Conditions: column: Zorbax Extend-C18 2.1 x 50 mm; eluents: water / acetonitrile, 0.1% formic acid
Method in brief: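 Pure standards were analyzed in mixtures of ~100 molecules using HPLC coupled to a quadrupole time-of-flight mass spectrometer, in both positive and negative ionization mode. Separation used a Zorbax Extend-C18 column (2.1 × 50 mm, 1.8 μm) at 100 μL/min, with water and acetonitrile each containing 0.1% formic acid. Dead and dwell volumes were 40 μL and 900 μL, and data were collected over 3 months. Retention time was read from computationally picked adduct peaks, each inspected manually.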

| SMILES | RP-LC retention time |
| --- | --- |
| CCOc1ccc(NS(=O)(=O)c2cc3c4c(c2)CCC(=O)N4CCC3)cc1 | 818 s |
| Cc1cc(C)c(S(=O)(=O)N2CCCC(C(=O)Nc3ccc4c(c3)OCO4)C2)c(C)c1 (stereo not given) | 974 s |
| Cc1ccc(-c2nc(-c3cccc(-c4ccn[nH]4)c3)no2)s1 | 1020 s |
| O=C(NCC(O)c1ccsc1)c1ccc2c(c1)OCO2 (stereo not given) | 652 s |
| COc1cccc(NC(=O)Cn2ccc3ccc(-c4nnc(C)o4)cc32)c1 | 788 s |
| COc1ccc(OC)c(NC(=O)CSC2CCc3ccccc3NC2=O)c1 (stereo not given) | 797 s |
| COc1ccc(C2Cn3nnc(-c4nc(-c5ccc(C)cc5)no4)c3CO2)cc1 (stereo not given) | 1180 s |
| Cc1nc(C)c(C(=O)N2CCCn3cc(-c4ccccc4F)nc32)s1 | 679 s |
| CCn1cc(S(=O)(=O)Nc2ccc(C)c(F)c2)c2cccnc21 | 799 s |
| CCc1noc(NC(C)=O)c1-c1ccc(C)c(S(=O)(=O)Nc2ccc(F)cc2)c1 | 822 s |
| CN(C)C(=O)/N=N/C(=O)N(C)C | 597 s |
| O=C(Cn1c(=O)oc2ccc(C(=O)N3CCCC3)cc21)NCCCc1ccccc1 | 764 s |
| COc1cccc(NC(=O)Nc2ccc(CC(N)=O)cc2)c1OC | 636 s |
| Cc1ccc(Cn2c(=O)c(N3CCN(C(=O)NCc4ccco4)CC3)nc3cccnc32)cc1 | 706 s |
| COc1cc(-c2nc3ncccn3c2Nc2cc(C)ccc2C)ccc1O | 672 s |
| CNC(=O)c1ccc(Cn2cnc3cccnc32)cc1 | 572 s |
| COc1nc2ccccc2nc1N1CCCC(C(=O)Nc2ccc(F)cc2F)C1 (stereo not given) | 1170 s |
| Cc1nc2cc(N3CC(C(=O)Nc4ccc(Cl)cc4F)CC3=O)ccc2o1 (stereo not given) | 787 s |
| CC(=O)Nc1cccc(C(=O)NCCc2c[nH]c3ccc(Cl)cc23)c1 | 736 s |
| Cc1sc(-c2cc(C(F)(F)F)[nH]n2)cc1S(=O)(=O)N1CCN(c2ccccn2)CC1 | 752 s |
| CCn1cnnc1C1CCCCN1S(=O)(=O)c1ccccc1F (stereo not given) | 706 s |
| CSc1ccc(Cl)c(-c2nc(-c3ccc4c(c3)oc(=O)n4C)no2)c1 | 1170 s |
| CCc1nn(CCO)c(CC)c1Oc1cc(C#N)cc(C#N)c1 | 891 s |

| SMILES | RP-LC retention time |
| --- | --- |
| CN1CCc2ccccc2C1Cc1ccccc1NC(=O)c1sc2ccccc2c1Cl (stereo not given) | 852 s |
| O=C(Cc1nc(-c2ccccn2)n[nH]1)Nc1ccc(F)c(F)c1 | 651 s |
| Cc1cc(F)ccc1NC(=O)c1cc(C(C)C)n2nccc2n1 | 1140 s |
| COCCNS(=O)(=O)c1ccc(-c2ccc(C)cc2)cc1 | 890 s |
| O=C(C1=CN(c2ccc(Cl)c(Cl)c2)c2cc(F)ccc2S1(=O)=O)N1CCOCC1 | 882 s |
| CCCNC(=O)N1CCCCC1c1n[nH]c(C)n1 (stereo not given) | 577 s |
| Cc1cc(C)cc(C(=O)N2CCCC(C(=O)NCCN3CCOCC3)C2)c1 (stereo not given) | 619 s |
| O=C(NCc1ccc(F)cc1)c1cn(-c2ccc(NC(=O)C3CC3)cn2)cn1 | 748 s |
| CC(O)(CNC(=O)c1cnc2ccccc2n1)c1ccccc1 (stereo not given) | 734 s |
| CCN(C(=O)c1ccccc1Br)c1nc(-c2ccccc2)cs1 | 1330 s |
| CCc1ccc(C(C)NC(=O)c2cccc(C3CCCN(C(=O)NC)C3)c2)cc1 (stereo not given) | 888 s |
| Cc1cc(SCC(=O)Nc2ccc3c(c2)OCO3)nc(-c2cnccn2)n1 | 680 s |
| Clc1ccc(Cl)c(-c2ccc(CNCc3ccccn3)o2)c1 | 733 s |
| CC(C)(C)NC(=O)N1CCCN(C2CCN(Cc3ccccc3)C2=O)CC1 (stereo not given) | 618 s |
| CCOC(=O)Cc1ccc(NC(=O)N2CCc3cn(CC)c4cccc(c34)C2)cc1 | 1020 s |
| CCN1CCN(c2ccc(-c3nc(-c4ccc(C)cc4)no3)cn2)CC1 | 715 s |
| O=C(CCNc1c(-c2cccc(F)c2)nc2cnccn12)NCc1ccco1 | 680 s |
| COC(=O)[C@H](CCSC)NC(=O)c1cccc(-n2cnnn2)c1 | 707 s |
| O=C(NCCc1ccccc1)NC1CCN(C(=O)N2C[C@H]3C[C@H](C2)[C@H]2CCCC(=O)N2C3)CC1 | 658 s |
| O=C(c1cccs1)N1CCC2(CC1)NC(=O)N(Cc1ccccc1)C2=O | 741 s |
| CCOC(=O)c1c(S(=O)(=O)N2CCC(C(=O)Nc3ccc(OC)cc3)CC2)c(C)n(CC)c1C | 857 s |
| Cc1ccc(Cn2c(N3CCCC(C(=O)NCc4ccccc4)C3)nc3ccsc3c2=O)cc1 (stereo not given) | 958 s |
| Cc1csc(-c2cc(S(=O)(=O)NCC3CCCO3)cn2CC(=O)N2CCCCC2)n1 (stereo not given) | 831 s |

| SMILES | RP-LC retention time |
| --- | --- |
| CCc1ccc(C(=O)N2CC3CN(S(=O)(=O)c4cccc(C)c4)CC(C2)O3)cc1 | 925 s |
| O=C(Nc1ccccc1)N1CCC(n2cnc3ccc(Cl)cc3c2=O)CC1 | 782 s |
| COc1cccc(-c2nc(C3CCN(S(=O)(=O)c4ccc(C(C)C)cc4)CC3)no2)c1 | 1300 s |
| Cc1nc(-c2ccc3c(c2)CCN3C(=O)c2cccc(F)c2)cs1 | 992 s |
| CCc1nc(N)n(CC(=O)Nc2ccc(OC)cc2)c(=O)c1C | 650 s |
| COc1ccccc1NC(=O)C1CC(=O)N(c2ccc3oc(C)nc3c2)C1 (stereo not given) | 726 s |
| Cc1sc(NC(=O)C2CCCO2)nc1-c1ccc2c(c1)NC(=O)CO2 (stereo not given) | 732 s |
| Cc1sc(-c2nc(-c3cccc(F)c3)no2)cc1S(=O)(=O)N1CCN(c2ccccn2)CC1 | 959 s |
| O=C(NC1CCN(c2cc(-c3ccc(Cl)cc3)[nH]n2)C1)c1ccc2c(c1)OCO2 (stereo not given) | 715 s |
| Cc1cc(C(=O)NC2CCCC2)c2cccc(Cl)c2n1 | 840 s |
| CCOC(=O)c1nc(Nc2ccc(C)c(C)c2)c2ccccc2n1 | 934 s |
| CCn1c(=O)sc2cc(S(=O)(=O)N3CCC(C(=O)Nc4ccc(C)c(Cl)c4)CC3)ccc21 | 905 s |
| CCn1ncc(C(=O)NCCn2c(C)cnc2C2CCC2)c1C | 567 s |
| O=c1c(=O)n(-c2ccccc2)ccn1Cc1nc(-c2ccc(Cl)cc2)no1 | 877 s |
| O=C(CSc1ncnc2ccccc12)N1CCCc2ccccc21 | 844 s |
| CCOc1ccc(-c2cc3c(=O)n(Cc4nc(-c5cccc(OCC)c5)no4)ncn3n2)cc1 | 1220 s |
| COC(=O)c1c(-c2ccccc2)noc1NCc1ccc(C)o1 | 989 s |
| CCC(=O)Nc1nc(-c2ccc3c(c2)NC(=O)CO3)c(C)s1 | 719 s |
| COc1ccc(NC(=O)NCC2CCOCC2)cc1F | 668 s |
| Cc1cccc(C)c1NC(=O)N1CCC(OC2CCN(S(C)(=O)=O)CC2)CC1 | 718 s |
| CCn1c(=O)c(=O)n(CC(=O)NC2CCCCCC2)c2cccnc21 | 760 s |
| Cc1ccc2c(=O)c(C(=O)c3ccc(Cl)cc3)cn(CC(=O)NCC3CCCO3)c2n1 (stereo not given) | 745 s |
| COc1ccc(CCc2nc3nccc(-c4ccc(F)cc4OC)n3n2)cc1 | 916 s |

| SMILES | RP-LC retention time |
| --- | --- |
| O=C(c1cccs1)N1[C@H]2CC[C@@H]1c1cnc(-c3ccccc3)nc1C2 | 907 s |
| COc1ccc(CNC(=O)C2c3ccccc3CC(=O)N2C)cc1 (stereo not given) | 711 s |
| CC(C)CCC(=O)N1CCC2(CC1)CC(O)CCO2 (stereo not given) | 644 s |
| Cc1ccccc1Cn1c(N2CCC(C(=O)N3CCN(c4ccccn4)CC3)CC2)nc2ccccc21 | 587 s |
| Cc1c(-c2nnc(C3CCC3)o2)c(S(=O)(=O)NCc2ccc(Cl)cc2)c(C)n1C | 1010 s |
| CCCCn1cc(S(=O)(=O)NCc2ccc(F)cc2Cl)c2cccnc21 | 1030 s |
| CC1CCN(C(=O)C2=NN(Cc3ccccc3F)c3ccccc3S2(=O)=O)CC1 | 1030 s |
| O=C(c1cc(-c2ccccn2)n[nH]1)N1CCCC(C(=O)N2CCc3ccccc32)C1 (stereo not given) | 713 s |
| O=c1ccc(N2CCCN(S(=O)(=O)c3ccc(F)c(Cl)c3)CC2)nn1-c1ccccc1 | 911 s |
| CCSc1ccc(-n2ncc(C(=O)NC3CC3)c2C)nn1 | 722 s |
| COC(=O)c1c(C)[nH]c(C(=O)N2CCC(CC(=O)NCCc3c[nH]c4ccc(C)cc34)CC2)c1C | 750 s |
| Cc1ccc(-c2coc3cc4oc(=O)c(CC(=O)N5CCC(C(N)=O)CC5)c(C)c4cc23)cc1 | 813 s |
| O=C(CN1C(=O)c2ccccc2C1=O)NCC1CCS(=O)(=O)C1 (stereo not given) | 586 s |
| Cc1cccc(Cn2nc3n(CCC(=O)NC(C)C)c(=O)c4ccccc4n3c2=O)c1 | 851 s |
| Cc1cc(OCC(=O)N[C@H](C(=O)O)C(C)C)c2c3c(c(=O)oc2c1)CCC3 | 788 s |
| CCOC(=O)c1cccc(Nc2c(-c3cccc(O)c3)nc3cnccn23)c1 | 748 s |
| Cc1ccccc1CNC(=O)C1c2ccccc2CC(=O)N1C (stereo not given) | 755 s |
| Cn1ccc2ccn(CC(=O)Nc3ccccc3)c(=O)c21 | 737 s |
| O=C(Nc1ccc2c(c1)OCCO2)N1CCC(Cc2nc(-c3ccncc3)n[nH]2)C1 (stereo not given) | 580 s |
| CCCNC(=O)C1CCN(c2ccc(SCC(=O)Nc3ccc(Cl)cc3F)nn2)CC1 | 688 s |
| Cc1ccc(-c2nnc(Cc3nc(-c4ccc(F)c(F)c4)no3)o2)cc1F | 1110 s |
